Reference: patent US6846845B2, “Heat shock protein inducer” (Eisai Co., Ltd., priority 2002, dated 2005)

Legend:
Type in all cases: in vivo, rat
isolated perfused heart = assay: Isolated perfused heart experiments (Langendorff, no-flow global ischemia/reperfusion), Example 1; conditions: for amount of creatine kinase (CK) released during reperfusion versus Control Group: 30 min reperfusion, FIG. 6
Method: As mentioned above, 24 hours after administration of 200 mg/kg of GGA or the vehicle, rats were heparinized (500 IU/kg, i.p.) and anesthetized with pentobarbital (50 mg/kg, i.p.).
Each heart was isolated and reperfused using the Langendorff method with Krebs-Henseleit buffer (pH 7.4, [in mM] 118 NaCl, 4.7 KCl, 2.5 CaCl2, 1.2 MgSO4, 1.2 KH2PO4, 25.0 Na2HCO3, 11.0 glucose) equilibrated with a 95% O2, 5% CO2 gas mixture at 36.5° C., 75 mmHg (1.0×10^4 Pa).
A water-filled latex balloon was inserted through the mitral orifice into the left ventricle, and the left ventricular end diastolic pressure (LVEDP) was adjusted to 0-5 mmHg (0-667 Pa). During the first 10 minutes of constant pressure reperfusion, the perfusion flow rate was determined for each heart, and the hearts were then perfused at a determined perfusion rate using a microtube pump, during which time each heart was covered with water-jacketed glassware and humidity was maintained at 90% or more.
Normothermic no-flow global ischemia was performed for 20, 40 and 60 minutes, followed by reperfusion for 30 minutes. The coronary effluent from the 30-minute reperfusion period was collected for measurement of released creatine kinase (CK). The ratio of released CK to heart weight was analyzed by unpaired t-test.
The peak position and negative first derivaties of left ventricular pressure (dP/dt max and dP/dt min) were monitored using a pressure transducer. Left ventricular developed pressure (LVDP) was defined as the difference between left ventricular systolic and diastolic pressure. Coronary perfusion pressure (CPP) was calculated as the hydraulic pressure measured at the level of aortic cannulation. Changes in LVDP, CPP and dP/dt were analyzed by two-way analysis of variance (ANOVA), followed by the Bonferroni/Dunn test.
The LVDP, CPP and electrocardiogram were continuously recorded on a polygraph recorder (WS-681G, Nihon Koden, Tokyo), and stored on a PCM data recorder (RD-111T, TEAC, Tokyo) for later analysis.

[1] = Observation of abnormalities (side-effects) during oral administration; conditions: rats, oral 50, 100, 200 and 400 mg/kg
Method: An emulsion of 100% by weight of geranylgeranylacetone (GGA) with 5% by weight of gum arabic and 0.008% by weight of tocopherol was given orally to the rats described above. The oral dosages were 50 mg/kg, 100 mg/kg, 200 mg/kg and 400 mg/kg (GGA groups). […] The vehicle was administered orally to the Control Group.

myocardial cells = assay: Electron microscope findings in left ventricular papillary muscle after ischemia/reperfusion; conditions: GGA-treated rats, 20 min no-flow ischemia and 30 min reperfusion
Method: After 30 minutes of reperfusion […] 20 minutes of no-flow ischemia, the papillary muscle of the left ventricle was immediately removed from the GGA-treated and Control hearts, and cut into small blocks. The tissue blocks were then fixed in a cacodylate buffered (pH 7.4) solution containing 2.5% glutaraldehyde and paraformaldehyde at 4° C. for 2 hours, and postfixed in a cocodylate buffered (pH 7.4) solution containing 2% osmium tetroxide and 0.5% potassium ferrocyanide at 4° C. for 2 hours. The tissue blocks were then dehydrated in ethanol and embedded in epoxy resin. Ultra-thin sections were stained with uranyl acetate and lead cistate, and were viewed under a transmission electron microscope (JOEL-100CX, Tokyo).

PKC (α, β, γ and ε) = assay: Translocation of PKC isoforms α, β, γ and ε in particulate and cytosolic heart fractions (Western immunoblotting); conditions: 24 h after GGA 200 mg/kg oral or vehicle; chelerythrine 5 mg/kg i.v. pretreatment, FIG. 10

CC(=O)CCC=C(C)CCC=C(C)CCC=C(C)CCC=C(C)C [GGA, 6, 10, 14, 18-tetramethyl-5,9, 13, 17-nonadecatetraen-2-one]
LVDP and dP/dt during reperfusion versus Control Group (isolated perfused heart; 24 h after oral 200 mg/kg, printed 'after about 20-40 minutes of reperfusion', FIG. 5): remarkably better
functional recovery (LVDP, dP/dt) versus Control Group (isolated perfused heart; 24 h after oral 200 mg/kg, printed 'after about 60 minutes of reperfusion', FIG. 5): no great difference
amount of creatine kinase (CK) released during reperfusion versus Control Group (isolated perfused heart; ischemic period 20 or 40 minutes): much less
amount of creatine kinase (CK) released during reperfusion versus Control Group (isolated perfused heart; ischemic period 60 minutes): no great difference
abnormalities (side-effects) during administration [1]: No particular abnormalities (side-effects) were observed
microstructure of myocardial cells by transmission electron microscopy (myocardial cells): preserved microstructurally
PKC isoforms α, β, γ and ε in cytosolic and particulate fractions (PKC (α, β, γ and ε)): not influenced
